For series [1], the system named is Respiratory syncytial virus. In words: Antiviral activity against RSV A2 harboring eGFP infected in human HeLa cells assessed as reduction in virus replication measured after 3 days by laser microscopy. It is filed as functional, organism-based. Conditions: 72 h.
The test system of series [2] is Respiratory syncytial virus. In words: Antiviral activity against RSV A2 harboring eGFP infected in human HeLa cells assessed as reduction in virus replication by measuring 3X protein-adjusted effective concentration for 90% inhibition measured after 3 days in presence of human serum albumin and alpha(1)-acid glycoprotein by laser microscopy. It is filed as functional. Conditions: time 3 day.

Series [3] relates to HeLa. Kind of series: Cytotoxicity against human HeLa cells assessed as reduction in cell viability at highest concentration measured after 3 days by ATPlite assay. It is filed as toxicity, cell-based. The conditions noted are these: 72 h, time 3 day. (In general: Cellular ATP, detected with luciferase, serves as a proxy for viable cell number.)
The nature of series [4]: Chromatographic hydrophobicity index, logD of the compound at pH 7.4 by UPLC analysis. In kind it is physicochemical. Conditions: buffer.
A short description of series [5]: Equilibrium solubility of the compound […] at pH 7 measured after 3 days by LC-MS/MS analysis. It is filed as physicochemical. Conditions: time 3 day.
A short description of series [6]: Thermodynamic solubility in aqueous buffer at pH 7 incubated for 24 hrs by UPLC analysis. It is filed as physicochemical. Conditions: read-out: Therm_solubility.
Series [7] is described as follows: Intrinsic clearance in human liver microsomes assessed per mg protein at 1 uM measured after 60 mins in presence of NADPH by LC-MS/MS analysis. Conditions: read-out: CLH. In kind it is ADME, Microsome. (In general: Liver microsomes are vesicles of endoplasmic reticulum, rich in cytochrome P450 enzymes.)
The nature of series [8]: Intrinsic clearance in human hepatocytes assessed per million cells at 1 uM measured after 180 mins by LC-MS/MS analysis. In kind it is ADME, cell-based, Hepatocyte. The conditions noted are these: read-out: CLH.
A short description of series [9]: Clearance in Sprague-Dawley rat at 1 mg/kg, iv by LC-MS/MS analysis. In kind it is ADME, organism-based. The conditions noted are these: in vivo.
Series [10] can be described thus: Volume of distribution at steady state in Sprague-Dawley rat at 1 mg/kg, iv by LC-MS/MS analysis. The conditions noted are these: in vivo, read-out: Vdss. It is filed as ADME, organism-based.
Series [11] concerns Rattus norvegicus. In words: Particle size for the 50th percentile of the cumulative volume distribution in Sprague-Dawley rat at 50 mg/kg, IM […]. It is filed as ADME, organism-based. The conditions noted are these: in vivo.
The subject of series [12] is Rattus norvegicus. Kind of series: Release rate constant in Sprague-Dawley rat at 50 mg/kg, IM measured over 12 weeks by LC-MS/MS analysis. It is filed as ADME, organism-based. The conditions noted are these: in vivo, 2016 h.
Series [13] in a line: Bioavailability in Sprague-Dawley rat assessed as dose released at 50 mg/kg, IM measured over 12 weeks by LC-MS/MS analysis. It is filed as ADME, organism-based. Conditions: in vivo.
Series [14] can be described thus: Clearance in Beagle dog at 0.25 mg/kg, iv by LC-MS/MS analysis. In kind it is ADME, organism-based, Canis lupus familiaris. The conditions noted are these: in vivo.
Series [15] is described as follows: Volume of distribution at steady state in Beagle dog at 0.25 mg/kg, iv by LC-MS/MS analysis. In kind it is ADME, organism-based, Canis lupus familiaris. The conditions noted are these: in vivo, read-out: Vdss.
Series [16] concerns Canis familiaris. Kind of series: Particle size for the 50th percentile of the cumulative volume distribution in Beagle dog at 20 mg/kg, IM […]. In kind it is ADME, organism-based, Canis lupus familiaris. Conditions: in vivo.
Series [17] relates to Canis familiaris. In words: Release rate constant in Beagle dog at 20 mg/kg, IM by LC-MS/MS analysis. In kind it is ADME, organism-based, Canis lupus familiaris. The conditions noted are these: in vivo.
The nature of series [18]: Bioavailability in Beagle dog assessed as dose released at 20 mg/kg, IM by LC-MS/MS analysis. In kind it is ADME, organism-based, Canis lupus familiaris. The conditions noted are these: in vivo.
A short description of series [19]: Clearance in Sprague-Dawley rat at 2.5 mg/kg, iv by LC-MS/MS analysis. In kind it is ADME, organism-based. Conditions: in vivo.
A short description of series [20]: Volume of distribution at steady state in Sprague-Dawley rat at 2.5 mg/kg, iv by LC-MS/MS analysis. It is filed as ADME, organism-based. The conditions noted are these: in vivo, read-out: Vdss.

Values after ≈ are worked out from the molar mass of the structure shown.

The EC50 is the concentration at which the effect is half-maximal. Broadly, the solubility is the concentration that dissolves in the medium under given conditions. The low end stands for little dissolved substance, the high end for much dissolved substance. The term clearance denotes the rate of elimination divided by the concentration. Low values mean inefficient removal, high ones efficient removal.

`O=C1N(Cc2nc3cc(Cl)ccc3n2CCCC(F)(F)F)c2cnccc2C12CN(S(=O)(=O)C1CC1)C2`: the EC50 in series [1] worked out at 0.43 nM. Further, in series [2], the “protein-adjusted EC90” value amounted to 0.0082 µg/mL. In addition, the Activity entry in [3] is recorded as “Non-toxic”. In addition, the CHI in series [4] was found to be 2.81. The solubility at 72 h in series [5] is under 0.13 µM. For the same compound, the solubility thermodynamic at 24 h in [6] was under 0.1 µg/mL. The microsomal CLint at 1 µM in [7] was under 7.7 µL/min/mg. The hepatocyte CLint at 1 µM in series [8] was under 1.2 µL/min/1e6 cells. Also, the clearance was 43.5 mL/min/kg in [9] and 0.99 mL/min/kg in series [14]. Besides, the Vd in series [10] is 2.48 L/kg; in series [15] it was 2.65 L/kg. The “Median particle size (D50)” value in series [11] worked out at 15.6 um. Further, the Ka in series [12] was found to be 0.003 h⁻¹; in series [17], 0.01 h⁻¹. For the same compound, the bioavailability in [13] amounted to 88%; in series [18], 93%. For the same compound, the “Particle size (D50)” value in series [16] was 15.6 um.

On to `CC(C)(O)C(=O)N1CC2(C1)C(=O)N(Cc1nc3cc(Cl)ccc3n1CCCC(F)(F)F)c1ccccc12`, for which, in [1], the EC50 was 1 nM. The “protein-adjusted EC90” value in series [2] stood at 0.031 µg/mL. For the same compound, the Activity result in series [3] is given as “Non-toxic”. Moreover, the CHI in [4] amounted to 2.84. Moreover, the solubility at 72 h in [5] was determined as 0.74 µM (≈ 0.396 µg/mL). The solubility thermodynamic at 24 h in series [6] is under 0.1 µg/mL. In series [7], the microsomal CLint at 1 µM was under 7.7 µL/min/mg. In series [8], the hepatocyte CLint at 1 µM was under 1.2 µL/min/1e6 cells. In addition, the values for the clearance in [9] and in [14] were 9.3 mL/min/kg and 3.56 mL/min/kg, respectively. Moreover, the Vd turned out to be 2.78 L/kg in [10] and 1.77 L/kg in [15]. For the same compound, the “Median particle size (D50)” value in series [11] came to 1.02 um. In addition, the Ka in series [12] worked out at 0.001 h⁻¹; in series [17], 0.003 h⁻¹. Further, the figures for the bioavailability in [13] and in series [18] were 85% and 102%, respectively. Further, in [16], the “Particle size (D50)” value came out at 1.03 um.

On to `CC(C)C(=O)N1CC2(C1)C(=O)N(Cc1nc3cc(Cl)ccc3n1CCCCF)c1cnccc12`, for which, in series [1], the EC50 stood at 1 nM. For the same compound, the “protein-adjusted EC90” value in series [2] is 0.017 µg/mL. The Activity entry in series [3] is “Non-toxic”. The compound further showed a CHI in [4] of 2.14. For the same compound, the concentration in solution in [5] (solubility at 72 h) came to 361 µM (≈ 175 µg/mL). Besides, the solubility thermodynamic at 24 h in series [6] was determined as 44 µg/mL (≈ 90.9 µM). Further, the microsomal CLint at 1 µM in series [7] is under 7.7 µL/min/mg. Further, in series [8], the hepatocyte CLint at 1 µM was under 1.2 µL/min/1e6 cells. Moreover, the clearance was found to be 26.3 mL/min/kg in series [9] and 11.8 mL/min/kg in series [14]. Further, the Vd was 5.3 L/kg in series [10] and 0.82 L/kg in series [15]. Also, the “Median particle size (D50)” value in series [11] is on record as 9.11 um. In addition, the results for the Ka in series [12] and in [17] were 0.013 h⁻¹ and 0.033 h⁻¹, respectively. In addition, the bioavailability is 142% in series [13] and 122% in [18]. Further, the “Particle size (D50)” value in series [16] came to 5.43 um.

Turning to `CC(C)NC(=O)N1CC2(C1)C(=O)N(Cc1nc3cc(Cl)ccc3n1CCCC(F)(F)F)c1cnccc12`, the EC50 in series [1] amounted to 0.23 nM. Further, in [2], the “protein-adjusted EC90” value is 0.0037 µg/mL. Also, the Activity result in series [3] is “Non-toxic”. In series [4], this compound gave a CHI of 2.39. In addition, the solubility at 72 h in series [5] was 11 µM (≈ 5.88 µg/mL). In addition, the solubility thermodynamic at 24 h in series [6] was under 0.1 µg/mL. The microsomal CLint at 1 µM in series [7] was under 7.7 µL/min/mg. Besides, the hepatocyte CLint at 1 µM in series [8] was under 1.2 µL/min/1e6 cells. The clearance stood at 36.9 mL/min/kg in [9] and 14.6 mL/min/kg in series [14]. Besides, the Vd in series [10] turned out to be 1.94 L/kg; in series [15] it was 1.66 L/kg. The “Median particle size (D50)” value in series [11] is listed as 4.36 um. Besides, the Ka in series [12] worked out at 0.005 h⁻¹; in series [17] it was 0.01 h⁻¹. In addition, the bioavailability is 107% in series [13] and 90% in [18]. Besides, the “Particle size (D50)” value in series [16] is 5.03 um.

As to `CC(C)NC(=O)N1CC2(C1)C(=O)N(Cc1nc3cc(Cl)ccc3n1CCCC#N)c1ccccc12`, in [1], the EC50 was determined as 0.58 nM. For the same compound, in [2], the “protein-adjusted EC90” value came to 0.06 µg/mL. Further, the Activity result in [3] is “Non-toxic”. For the same compound, in [4], the CHI amounted to 2.37. In addition, the solubility at 72 h in series [5] is under 0.25 µM. Also, in [6], the solubility thermodynamic at 24 h is under 0.1 µg/mL. Besides, in series [7], the microsomal CLint at 1 µM is under 7.7 µL/min/mg. For the same compound, the hepatocyte CLint at 1 µM in [8] was 1.5 µL/min/1e6 cells. In addition, the “Median particle size (D50)” value in series [11] is listed as 5.48 um. For the same compound, the values for the Ka in series [12] and in series [17] were 0 h⁻¹ and 0.001 h⁻¹, respectively. Further, the values for the bioavailability in series [13] and in series [18] were 21% and 51%, respectively. Besides, the clearance amounted to 21 mL/min/kg in series [19] and 4.9 mL/min/kg in [14]. Besides, the Vd in [20] is 3.2 L/kg; in series [15], 0.56 L/kg. Also, the “Particle size (D50)” value in [16] turned out to be 5.34 um.
